What was measured:
Der f 2-specific IgE = experiment: Prevention experiment in rats: Der f 2-specific IgE (ELISA); assay type: in vivo; conditions: rat, 50 μg three times, then Der f 2 + alum
Method: Der f 2 was prepared at 1 μg/mL in an immobilization buffer (0.05 M carbonate buffer, pH 9.6), then added at a concentration of 100 μL/well to an ELISA plate, and left overnight at 4° C. The immobilization plate was washed once with PBS-T (0.05%). A blocking solution (4× Block Ace, Snow Brand Milk Products Co., Ltd.; UK-B80) was added thereto at a concentration of 200 μL/well. The plate was blocked by incubation at 37° C. for 1.5 hours. The serum was diluted 20-fold with a diluent (PBS-T:Block Ace=9:1) and used. The plate was reacted with the serum at 37° C. for 1.5 hours and washed three times with PBS-T (0.05%). An anti-rat IgE antibody (Rabbit anti-Rat IgE HRP; Invitrogen Corp., 61-9520) was diluted 1000-fold with a diluent and added thereto as a secondary antibody at a concentration of 100 μL/well. After reaction at 37° C. for 1.5 hours, the plate was washed three times with PBS-T (0.05%). […] Then, the measurement was performed using a plate reader (Bio-Rad Laboratories, Inc.; model 680) (dual: measurement: 450 nm, control: 570 nm). […]
Blood was collected every 2 weeks from the administer start date. […] Serum was collected, and an IgG antibody against dog IgE was evaluated by ELISA (FIG. 16). […]

peptide-specific IgG = experiment: Peptide-specific IgG in serum of dogs given IgE peptide vaccine (ELISA); assay type: in vivo; conditions: dog
Method: The peptide used was MOUSE CH3-4-17-11 (mouse CH3 region amino acid sequence) (SEQ ID NO: 27). 2 mL (500 μg) of a solution of the peptide (concentration: 250 μg/mL) and 2 mL of a complete adjuvant (DIFCO ADJUVANT COMPLETE FREUND, Becton, Dickinson and Company Japan) were dispensed to microtubes. Liquids (4 mL per animal) emulsified by shaking for 15 minutes in a high-speed shaker were used as IgE peptide vaccines.
The animals used were 1 male and 7 females of 5- to 7-month-old beagles and were divided into an administration group (n=4; 08-33, 08-42, 08-43, and 08-44) and a non-administration group (n=4; 08-45, 08-46, 08-47, and 08-48).
The peptide was administered at days 0 (test start date), 14, and 28 in the first course and further at days 106 and 117 in the second course. The test substance was subcutaneously administered to the necks of the 4 animals in the administration group. The non-administration group was untreated.
At days 0, 14, 28, 42, 56, 70, 77, 84, 98, 106, 117, 131, 145, and 152 (4 time points (0, 14, 28, and 42) were excluded for the non-administration group), blood was collected from the jugular vein of each individual using a syringe. After separation of serum, the serum was used to measure peptide-specific IgG concentrations and IgE-specific IgG concentrations in the serum.
Each antigenic protein (MOUSE CH3-4-17-11 for peptide-specific IgG assay, and human IgE for IgE-specific IgG assay) was prepared at 1 μg/mL in an immobilization buffer (0.05 M carbonate buffer, pH 9.6), then added at a concentration of 100 μL/well to an ELISA plate, and left overnight at 4° C. The immobilization plate was washed once with PBS-T (0.05%). A blocking solution (4× Block Ace, Snow Brand Milk Products Co., Ltd.; UK-B80) was added thereto at a concentration of 200 μL/well. The plate was blocked by incubation at 37° C. for 1.5 hours. The serum was diluted 5000-fold with a diluent (PBS-T:Block Ace=9:1) and used. […] Then, the measurement was performed using a plate reader (Bio-Rad Laboratories, Inc.; model 680) (dual: measurement: 450 nm, control: 570 nm).

Row | Sequence | Der f 2-specific IgE production compared with the control group (saline) (Der f 2-specific IgE; intravenous) | Der f 2-specific IgE production compared with the control group (saline) (Der f 2-specific IgE; subcutaneous (group 2)) | peptide-specific IgG concentrations in serum (O.D. values), one animal (08-44) (peptide-specific IgG; s.c., day 117 or later (second course)) [O.D.] | peptide-specific IgG in serum, administration group versus non-administration group (peptide-specific IgG; day 77, p<0.05) | level of IgG antibody against the peptide (peptide-specific IgG; summary of FIG. 6)
1 | KKTSVSASQWYTKHHNNATT (listed as Mus musculus) [M4-7-11] | inhibition of IgE production was confirmed | inhibition of IgE production was remarkably confirmed | – | – | –
2 | QEKKTSVSASQWYTKHHNNATTSIT (listed as Mus musculus) [MOUSE CH3-4-17-11] | – | – | ≥ 1.0 | significantly higher | increased

From patent US9657071B2, “IgE peptide vaccine” (NIPPON ZENYAKU KOGYO CO., LTD., priority 2012, dated 2017)
